Measured values reported in patent US8722731B2, “Furanyl compounds and the use thereof” (NovoMedix, LLC, priority 2010, dated 2014).

Tests used:
MCF-7 = experiment: IC50 cell-based assay, adherent cells, MCF-7; settings: Homo sapiens, MCF7, Breast, ER+, 72 hours, read-out: IC50 of Compounds in Adherent Cell Types
Protocol: (§1) In one embodiment, the IC50s of the compounds provided herein were determined in cell-based assays using adherent cells. In one embodiment, the activity of the compounds provided herein were determined in a cell-based assay using the triple negative breast cancer cell line MDA-MB-468. In one embodiment, the adherent cells used in the cell-based assays may be a cell type selected from Table 1. In one embodiment, the cell-based assay may be carried out as provided herein. On day 0, cells were seeded at 20,000 cells per well in 100 µL of media into individual wells of a 96-well tissue culture plate. The next day, compounds were diluted to twice the desired final concentration and added in 100 µL of media for a final volume of 200 μL. Standard solutions for each compound were prepared at 1000× concentration in DMSO. The highest concentration was 30 mM. Serial 1:1 dilutions were made from there for a 6- or 9-point curve (e.g., 30 mM, 15 mM, 7.5 mM, etc). Compounds were then diluted 1:500 in media, and 100 µL of the resulting solution was added to each well for a final dilution of 1:1000. Each concentration of compound was tested in triplicate. Cells were incubated at 37° C. with 5% CO2. After 72 hours, 20 μL of CellTiter 96 Aqueous One Solution Cell Proliferation Assay (Promega) was added to each well. Cells were placed back in the incubator, and the absorbance at 490 nm was read after 2-3 hours. The concentration of compound that decreased the number of metabolically active cells by 50% was determined and reported as the IC50. “Percent Viability” was determined by subtracting the average background value (media only) and expressed as a ratio to the average value obtained from cells treated with only DMSO.

HL-60 = experiment: IC50 cell-based assay, suspension cells, HL-60; settings: Homo sapiens, Leukemia, AML, read-out: IC50 of Compounds in Suspension Cell Types
Protocol: as §1
(§2) In one embodiment, the IC50s of the compounds provided herein were determined in cell-based assays using suspension cells. In one embodiment, the activity of the compounds provided herein were determined in a cell-based assay using the JeKo-1 cell line (mantle cell lymphoma) or the Pfeiffer cell line (diffuse large B-cell lymphoma). In one embodiment, the suspension cells used in the cell-based assays may be a cell type selected from Table 2. Assays with suspension cells were similar except that 40,000-60,000 cells were added to each well and compounds were added immediately after cell plating.

[1] = Percent weight change of animals in MDA-MB-468 xenograft study; assay type: in vivo, Mouse/SCID; settings: qd 20 mg/kg days 0 to 7, then qd 10 mg/kg day 8 and thereafter, IP, SCID mice
Protocol: (§3) In one embodiment, the effects of a compound provided herein on tumor growth in a mouse animal model were evaluated. In specific embodiments, the mouse animal model was the MDA-MB-468 xenograft model for breast cancer. Studies were performed to evaluate the effect of a compound provided herein on the growth of MDA-MB-468 breast tumors in mice. The test system that was used is summarized below:
(§4) Exemplary Protocol: Ten mice per group were inoculated s.c. on the left flank with 5×10^6 MDA-MB-468 cells. When tumors reached a mean volume of 100 or 200 mm^3, animals began treatment with a compound provided herein (See Table 4). Test article or vehicle were given once daily by IP injection for up to 21 days. Tumors were evaluated every Monday, Wednesday and Friday, body weights and condition were evaluated on a daily basis.
Animal Weight: All animals were weighed […] throughout the study. Group weight change was expressed as a daily group mean weight. Animals that lost greater than 20% of their total starting body weight were euthanized.
(§5) Compound 1 was dosed in mice at a dose of, for example, qd 50 mg/kg, for 22 days or more.
(§6) Compound 2 was dosed in mice at a dose of, for example, qd 20 mg/kg from day 0 to 7, then qd 10 mg/kg from day 8 and thereafter, for 22 days or more.

MDA-MB-361 = experiment: IC50 cell-based assay, adherent cells, MDA-MB-361; settings: Homo sapiens, Breast, Brain met Her2-neu + ER +, 72 hours, read-out: IC50 of Compounds in Adherent Cell Types
Protocol: as §1

RT-4 = experiment: IC50 cell-based assay, adherent cells, RT-4; settings: Homo sapiens, Bladder, papilloma, 72 hours, read-out: IC50 of Compounds in Adherent Cell Types
Protocol: as §1

SupB15 = experiment: IC50 cell-based assay, suspension cells, SupB15; settings: Homo sapiens, SUP-B15, Leukemia, B-ALL (Philadelphia chromosome+), read-out: IC50 of Compounds in Suspension Cell Types
Protocol: as §1, §2

H-460 = experiment: IC50 cell-based assay, adherent cells, H-460; settings: Homo sapiens, NCI-H460, Lung, large cell carcinoma, 72 hours, read-out: IC50 of Compounds in Adherent Cell Types
Protocol: as §1

MDA-MB-468 breast tumors = experiment: Tumor growth inhibition in MDA-MB-468 mouse xenograft model for breast cancer (tumor volume); assay type: in vivo; settings: qd 20 mg/kg days 0 to 7, then qd 10 mg/kg day 8 and thereafter, IP, SCID mice
Protocol: as §3, §4
Cell Culture: MDA-MB-468 breast cancer cells were grown in Liebowitz's L-15 with 10% fetal bovine serum and 1% pen/strep. Cells were routinely trypsinized and passaged 1:4. On the day of implantation, cells were washed in PBS, trypsinized and resuspended in complete media. Cells were washed 3× in serum free media (centrifuged 1000 rpm for 5 min). Cells were resuspended to a density of 1×10^8 cells/mL and diluted 1:1 with Matrigel. Cells were implanted s.c. using a 23 G needle in a volume of 0.1 mL.
Tumor Measurement: Tumors were monitored daily. If, during a daily evaluation, an animal's tumor appeared to have exceeded 1500 mm^3, the tumor was measured; and animals with tumors greater than 1500 mm^3 and/or that had become necrotic and/or hindered movement were euthanized. Tumors were measured twice weekly by measuring each tumor in 2 dimensions, along the largest dimension (length, L) and perpendicular to this dimension (width, W). Tumor weights were calculated using the standard formula: (L×W^2)/2. The mean tumor weight and standard error of the mean were calculated for each group at each time point. An ANOVA was used to compare differences of primary tumor volume.
as §5, §6

1937 = experiment: IC50 cell-based assay, adherent cells, 1937; settings: Breast, triple neg, 72 hours, read-out: IC50 of Compounds in Adherent Cell Types
Protocol: as §1

O=C(Nc1cc(C(F)(F)F)cc(C(F)(F)F)c1)c1cc(-c2ccc(Cl)cc2)oc1C(F)(F)F [Compound 2, 5-(4-Chlorophenyl)-N-(3,5-bistrifluoromethylphenyl)-2-trifluoromethylfuran-3-carboxamide]
IC50 (MCF-7): 5 to 10 µM
IC50 (HL-60): < 5 µM
Percent Weight Change of Control and Treated Animals, mean ([1]; Day 1): 0.00%
Percent Weight Change of Control and Treated Animals, mean ([1]; Day 2): −1.11%
Percent Weight Change of Control and Treated Animals, mean ([1]; Day 3): −2.65%
Percent Weight Change of Control and Treated Animals, mean ([1]; Day 4): −3.35%
Percent Weight Change of Control and Treated Animals, mean ([1]; Day 5): −3.84%
Percent Weight Change of Control and Treated Animals, mean ([1]; Day 6): −1.98%
Percent Weight Change of Control and Treated Animals, mean ([1]; Day 7): −3.25%
Percent Weight Change of Control and Treated Animals, mean ([1]; Day 8): −5.29%
Percent Weight Change of Control and Treated Animals, mean ([1]; Day 9): −3.91%
Percent Weight Change of Control and Treated Animals, mean ([1]; Day 10): −6.29%
Percent Weight Change of Control and Treated Animals, mean ([1]; Day 11): −3.98%
Percent Weight Change of Control and Treated Animals, mean ([1]; Day 12): −1.48%
Percent Weight Change of Control and Treated Animals, mean ([1]; Day 13): −1.39%
Percent Weight Change of Control and Treated Animals, mean ([1]; Day 14): −2.75%
Percent Weight Change of Control and Treated Animals, mean ([1]; Day 15): −0.49%
Percent Weight Change of Control and Treated Animals, mean ([1]; Day 16): −1.04%
Percent Weight Change of Control and Treated Animals, mean ([1]; Day 17): −0.16%
Percent Weight Change of Control and Treated Animals, mean ([1]; Day 18): 0.96%
Percent Weight Change of Control and Treated Animals, mean ([1]; Day 19): −0.20%
Percent Weight Change of Control and Treated Animals, mean ([1]; Day 20): −1.98%
Percent Weight Change of Control and Treated Animals, mean ([1]; Day 21): −0.19%
Percent Weight Change of Control and Treated Animals, mean ([1]; Day 22): −0.65%
IC50 (MDA-MB-361): < 5 µM
IC50 (RT-4): > 20 µM
IC50 (SupB15): < 5 µM
IC50 (H-460): > 20 µM
Tumor Volumes in Control and Treated Animals, mean (MDA-MB-468 breast tumors; Day 1): 119.09 mm^3
Tumor Volumes in Control and Treated Animals, mean (MDA-MB-468 breast tumors; Day 3): 103.39 mm^3
Tumor Volumes in Control and Treated Animals, mean (MDA-MB-468 breast tumors; Day 5): 119.30 mm^3
Tumor Volumes in Control and Treated Animals, mean (MDA-MB-468 breast tumors; Day 8): 139.19 mm^3
Tumor Volumes in Control and Treated Animals, mean (MDA-MB-468 breast tumors; Day 10): 181.97 mm^3
Tumor Volumes in Control and Treated Animals, mean (MDA-MB-468 breast tumors; Day 12): 234.51 mm^3
Tumor Volumes in Control and Treated Animals, mean (MDA-MB-468 breast tumors; Day 15): 276.34 mm^3
Tumor Volumes in Control and Treated Animals, mean (MDA-MB-468 breast tumors; Day 17): 311.15 mm^3
Tumor Volumes in Control and Treated Animals, mean (MDA-MB-468 breast tumors; Day 19): 318.18 mm^3
Tumor Volumes in Control and Treated Animals, mean (MDA-MB-468 breast tumors; Day 22): 356.43 mm^3
IC50 1937: < 5 µM
